Results taken from PMC10004634 (PLOS ONE, 2023).
Read-outs that look alike come from different tables or passages of the source.

Key:
Assay in all cases: biochemical
Design in all cases: KINOMEscan scanMAX competition binding, DNA-tagged kinases, qPCR read-out, percent control at 300 nM
[1] = target: T1, JAK1(JH2domain-pseudokinase) (Homo sapiens, UniProt P23458)
T1 construct: JH2domain-pseudokinase

KIT = KIT (Homo sapiens, UniProt P10721)
AAK1 = AAK1 (Homo sapiens, UniProt Q2M2I8)
BRAF(V600E) = BRAF(V600E) (Homo sapiens, UniProt P15056, V600E)
PIK4CB = target: T2, PIK4CB (Homo sapiens, UniProt Q9UBF8)
T2 construct: gene PI4KB

HIPK3 = HIPK3 (Homo sapiens, UniProt Q9H422)
TTK = target: T3, TTK (Homo sapiens, UniProt P33981)
T3 sequence (P33981 1-857): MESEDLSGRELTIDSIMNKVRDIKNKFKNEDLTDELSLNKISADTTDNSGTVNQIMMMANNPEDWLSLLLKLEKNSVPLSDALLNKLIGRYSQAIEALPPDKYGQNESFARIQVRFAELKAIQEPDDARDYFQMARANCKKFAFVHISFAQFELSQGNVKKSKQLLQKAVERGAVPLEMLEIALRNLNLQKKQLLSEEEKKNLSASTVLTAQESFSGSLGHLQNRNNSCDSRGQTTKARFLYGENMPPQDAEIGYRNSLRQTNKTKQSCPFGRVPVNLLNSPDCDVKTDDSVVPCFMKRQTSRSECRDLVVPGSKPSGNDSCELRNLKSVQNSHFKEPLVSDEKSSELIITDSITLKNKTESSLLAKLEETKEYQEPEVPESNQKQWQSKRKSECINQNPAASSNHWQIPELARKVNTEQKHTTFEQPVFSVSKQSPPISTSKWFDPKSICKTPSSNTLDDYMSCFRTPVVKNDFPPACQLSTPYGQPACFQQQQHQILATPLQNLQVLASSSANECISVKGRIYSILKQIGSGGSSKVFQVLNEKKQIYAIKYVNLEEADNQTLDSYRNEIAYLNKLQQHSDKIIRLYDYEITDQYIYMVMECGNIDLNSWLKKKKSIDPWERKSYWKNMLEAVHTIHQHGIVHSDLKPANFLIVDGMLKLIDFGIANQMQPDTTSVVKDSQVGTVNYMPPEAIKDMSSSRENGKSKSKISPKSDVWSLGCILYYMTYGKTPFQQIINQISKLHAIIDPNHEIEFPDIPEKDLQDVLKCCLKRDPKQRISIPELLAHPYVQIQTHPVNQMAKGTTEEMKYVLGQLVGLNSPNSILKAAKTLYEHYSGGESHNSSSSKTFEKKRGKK

PFTAIRE2 = target: T4, PFTAIRE2 (Homo sapiens, UniProt Q96Q40)
T4 construct: gene CDK15

CSF1R = CSF1R (Homo sapiens, UniProt P07333)
PRKCD = PRKCD (Homo sapiens, UniProt Q05655)
TYRO3 = target: T5, TYRO3 (Homo sapiens, UniProt Q06418)
T5 sequence (Q06418 1-890): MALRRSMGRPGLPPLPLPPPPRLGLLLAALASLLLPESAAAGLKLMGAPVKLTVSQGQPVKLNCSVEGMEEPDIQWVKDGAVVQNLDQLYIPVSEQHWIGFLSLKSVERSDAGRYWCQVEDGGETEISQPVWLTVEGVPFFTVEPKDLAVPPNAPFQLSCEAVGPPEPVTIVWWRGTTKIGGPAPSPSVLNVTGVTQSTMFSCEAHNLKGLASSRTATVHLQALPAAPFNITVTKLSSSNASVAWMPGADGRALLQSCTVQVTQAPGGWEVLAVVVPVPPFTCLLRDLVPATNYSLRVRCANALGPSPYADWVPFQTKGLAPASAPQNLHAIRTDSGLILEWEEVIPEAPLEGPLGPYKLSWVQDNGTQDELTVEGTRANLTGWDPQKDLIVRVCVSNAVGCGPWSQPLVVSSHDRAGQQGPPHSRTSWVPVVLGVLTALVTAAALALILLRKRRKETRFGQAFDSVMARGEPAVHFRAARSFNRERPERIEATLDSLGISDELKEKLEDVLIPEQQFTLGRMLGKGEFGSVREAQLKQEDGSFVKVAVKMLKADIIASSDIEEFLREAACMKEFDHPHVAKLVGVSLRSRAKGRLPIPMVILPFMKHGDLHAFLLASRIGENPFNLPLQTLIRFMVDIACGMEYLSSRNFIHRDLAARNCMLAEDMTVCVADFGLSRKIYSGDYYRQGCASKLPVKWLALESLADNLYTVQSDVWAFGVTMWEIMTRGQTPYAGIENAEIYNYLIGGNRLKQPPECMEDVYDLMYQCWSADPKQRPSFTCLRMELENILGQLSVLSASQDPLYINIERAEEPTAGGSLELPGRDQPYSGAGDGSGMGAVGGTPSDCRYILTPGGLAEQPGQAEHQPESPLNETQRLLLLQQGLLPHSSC

[2] = read-out: Percent control / Acalabrutinib
[3] = read-out: Percent control / Ibrutinib
[4] = read-out: Percent control / Tirabrutinib
[5] = read-out: Percent control / Zanubrutinib

T4 sequence (Q96Q40 whole entry): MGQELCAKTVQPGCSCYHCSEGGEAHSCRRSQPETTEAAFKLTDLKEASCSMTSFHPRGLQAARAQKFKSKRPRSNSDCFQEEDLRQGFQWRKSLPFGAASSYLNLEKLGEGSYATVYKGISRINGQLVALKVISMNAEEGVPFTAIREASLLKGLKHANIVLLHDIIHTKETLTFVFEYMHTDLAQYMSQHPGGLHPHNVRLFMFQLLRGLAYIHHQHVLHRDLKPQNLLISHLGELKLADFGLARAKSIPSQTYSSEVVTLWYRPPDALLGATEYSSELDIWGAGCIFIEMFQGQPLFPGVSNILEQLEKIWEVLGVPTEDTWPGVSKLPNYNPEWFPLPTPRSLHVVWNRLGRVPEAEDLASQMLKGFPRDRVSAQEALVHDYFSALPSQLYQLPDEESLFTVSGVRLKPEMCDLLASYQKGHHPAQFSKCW
Sequence of PRKCD (Q05655 whole entry): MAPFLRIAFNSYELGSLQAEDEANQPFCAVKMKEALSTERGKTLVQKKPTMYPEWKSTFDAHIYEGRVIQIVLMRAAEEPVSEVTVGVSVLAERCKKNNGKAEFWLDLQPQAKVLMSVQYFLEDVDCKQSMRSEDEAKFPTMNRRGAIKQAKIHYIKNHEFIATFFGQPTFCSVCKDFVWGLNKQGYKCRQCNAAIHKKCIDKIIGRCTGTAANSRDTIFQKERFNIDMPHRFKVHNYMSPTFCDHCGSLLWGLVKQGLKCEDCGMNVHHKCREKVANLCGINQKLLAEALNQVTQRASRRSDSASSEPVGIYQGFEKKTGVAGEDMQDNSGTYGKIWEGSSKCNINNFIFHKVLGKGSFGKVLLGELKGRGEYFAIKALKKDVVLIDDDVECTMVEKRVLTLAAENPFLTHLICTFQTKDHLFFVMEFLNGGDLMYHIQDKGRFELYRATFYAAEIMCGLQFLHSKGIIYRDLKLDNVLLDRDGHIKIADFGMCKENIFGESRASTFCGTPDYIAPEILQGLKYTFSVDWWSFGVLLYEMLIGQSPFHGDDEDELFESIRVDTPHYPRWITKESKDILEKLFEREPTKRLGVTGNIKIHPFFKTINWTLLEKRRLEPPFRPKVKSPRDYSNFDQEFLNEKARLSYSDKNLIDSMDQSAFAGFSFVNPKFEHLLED
Sequence of AAK1 (Q2M2I8 whole entry): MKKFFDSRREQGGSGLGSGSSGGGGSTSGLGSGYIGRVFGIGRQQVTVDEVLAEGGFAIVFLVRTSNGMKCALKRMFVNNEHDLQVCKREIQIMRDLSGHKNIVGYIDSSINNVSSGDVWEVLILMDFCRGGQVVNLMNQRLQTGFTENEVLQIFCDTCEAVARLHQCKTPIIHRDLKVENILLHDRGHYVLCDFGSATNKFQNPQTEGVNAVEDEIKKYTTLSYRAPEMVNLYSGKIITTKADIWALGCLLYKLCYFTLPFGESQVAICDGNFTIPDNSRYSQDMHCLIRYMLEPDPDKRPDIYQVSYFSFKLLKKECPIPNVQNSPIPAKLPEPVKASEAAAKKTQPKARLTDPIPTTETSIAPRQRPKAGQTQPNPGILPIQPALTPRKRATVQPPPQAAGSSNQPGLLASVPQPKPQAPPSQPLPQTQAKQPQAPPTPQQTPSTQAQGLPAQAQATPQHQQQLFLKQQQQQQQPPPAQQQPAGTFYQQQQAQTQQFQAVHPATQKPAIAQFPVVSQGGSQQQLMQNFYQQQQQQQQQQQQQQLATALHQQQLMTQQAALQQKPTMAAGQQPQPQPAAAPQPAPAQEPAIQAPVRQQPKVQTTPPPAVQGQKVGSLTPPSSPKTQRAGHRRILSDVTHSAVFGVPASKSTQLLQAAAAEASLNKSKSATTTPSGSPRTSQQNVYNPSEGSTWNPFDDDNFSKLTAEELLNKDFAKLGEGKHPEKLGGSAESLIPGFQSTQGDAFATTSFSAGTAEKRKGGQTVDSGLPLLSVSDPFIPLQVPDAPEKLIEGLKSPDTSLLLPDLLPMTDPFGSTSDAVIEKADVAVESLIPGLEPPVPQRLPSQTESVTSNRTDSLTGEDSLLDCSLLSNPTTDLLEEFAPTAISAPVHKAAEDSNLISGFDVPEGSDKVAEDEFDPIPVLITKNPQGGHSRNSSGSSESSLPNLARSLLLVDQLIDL
T2 sequence (Q9UBF8 whole entry): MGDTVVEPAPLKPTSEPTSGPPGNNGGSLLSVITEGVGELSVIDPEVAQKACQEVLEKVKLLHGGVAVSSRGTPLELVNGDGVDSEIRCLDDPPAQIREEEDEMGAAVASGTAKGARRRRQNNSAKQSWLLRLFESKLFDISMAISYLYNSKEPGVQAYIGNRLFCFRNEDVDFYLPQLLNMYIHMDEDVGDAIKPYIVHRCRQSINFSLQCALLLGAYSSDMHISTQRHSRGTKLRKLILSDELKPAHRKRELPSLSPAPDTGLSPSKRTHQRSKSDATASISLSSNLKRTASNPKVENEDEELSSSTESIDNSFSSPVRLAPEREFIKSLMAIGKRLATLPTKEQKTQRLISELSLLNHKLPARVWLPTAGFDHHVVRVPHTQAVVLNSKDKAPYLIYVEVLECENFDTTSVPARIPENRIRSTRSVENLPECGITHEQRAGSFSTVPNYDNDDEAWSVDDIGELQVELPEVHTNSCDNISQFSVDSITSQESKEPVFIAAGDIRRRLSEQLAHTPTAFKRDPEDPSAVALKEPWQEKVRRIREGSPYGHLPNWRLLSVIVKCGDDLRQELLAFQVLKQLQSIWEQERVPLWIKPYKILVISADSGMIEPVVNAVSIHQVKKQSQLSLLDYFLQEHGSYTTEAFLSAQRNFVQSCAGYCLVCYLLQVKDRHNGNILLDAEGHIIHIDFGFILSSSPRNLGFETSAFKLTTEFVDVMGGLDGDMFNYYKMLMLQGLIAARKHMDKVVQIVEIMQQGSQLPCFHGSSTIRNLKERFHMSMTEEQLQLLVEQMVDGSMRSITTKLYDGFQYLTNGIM
Sequence of KIT (P10721 whole entry): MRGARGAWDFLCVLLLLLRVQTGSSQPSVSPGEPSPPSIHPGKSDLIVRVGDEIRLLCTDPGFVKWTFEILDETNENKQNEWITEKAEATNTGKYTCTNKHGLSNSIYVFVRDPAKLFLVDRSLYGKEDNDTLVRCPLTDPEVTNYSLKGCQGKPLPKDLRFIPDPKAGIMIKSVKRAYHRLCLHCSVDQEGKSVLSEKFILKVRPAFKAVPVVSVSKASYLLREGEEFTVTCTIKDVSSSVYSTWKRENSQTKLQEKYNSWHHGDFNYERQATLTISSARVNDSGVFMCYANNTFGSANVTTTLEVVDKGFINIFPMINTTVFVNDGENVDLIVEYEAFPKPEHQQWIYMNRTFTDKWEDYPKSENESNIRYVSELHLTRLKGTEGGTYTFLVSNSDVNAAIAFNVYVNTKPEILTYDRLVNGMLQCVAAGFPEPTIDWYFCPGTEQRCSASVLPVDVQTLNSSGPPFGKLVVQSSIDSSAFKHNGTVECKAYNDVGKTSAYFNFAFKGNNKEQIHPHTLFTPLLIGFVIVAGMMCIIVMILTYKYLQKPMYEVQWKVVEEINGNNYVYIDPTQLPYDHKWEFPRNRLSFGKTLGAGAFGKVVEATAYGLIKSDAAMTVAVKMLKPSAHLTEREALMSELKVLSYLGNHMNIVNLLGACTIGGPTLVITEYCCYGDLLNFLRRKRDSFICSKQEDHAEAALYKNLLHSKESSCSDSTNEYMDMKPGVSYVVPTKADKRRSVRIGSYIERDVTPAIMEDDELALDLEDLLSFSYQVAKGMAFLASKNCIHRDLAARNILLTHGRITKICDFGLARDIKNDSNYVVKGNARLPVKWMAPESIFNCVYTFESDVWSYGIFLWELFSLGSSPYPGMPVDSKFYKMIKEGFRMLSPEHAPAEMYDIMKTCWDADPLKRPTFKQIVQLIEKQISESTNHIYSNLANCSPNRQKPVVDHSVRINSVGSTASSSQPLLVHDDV
Sequence of BRAF(V600E) (P15056 whole entry V600E): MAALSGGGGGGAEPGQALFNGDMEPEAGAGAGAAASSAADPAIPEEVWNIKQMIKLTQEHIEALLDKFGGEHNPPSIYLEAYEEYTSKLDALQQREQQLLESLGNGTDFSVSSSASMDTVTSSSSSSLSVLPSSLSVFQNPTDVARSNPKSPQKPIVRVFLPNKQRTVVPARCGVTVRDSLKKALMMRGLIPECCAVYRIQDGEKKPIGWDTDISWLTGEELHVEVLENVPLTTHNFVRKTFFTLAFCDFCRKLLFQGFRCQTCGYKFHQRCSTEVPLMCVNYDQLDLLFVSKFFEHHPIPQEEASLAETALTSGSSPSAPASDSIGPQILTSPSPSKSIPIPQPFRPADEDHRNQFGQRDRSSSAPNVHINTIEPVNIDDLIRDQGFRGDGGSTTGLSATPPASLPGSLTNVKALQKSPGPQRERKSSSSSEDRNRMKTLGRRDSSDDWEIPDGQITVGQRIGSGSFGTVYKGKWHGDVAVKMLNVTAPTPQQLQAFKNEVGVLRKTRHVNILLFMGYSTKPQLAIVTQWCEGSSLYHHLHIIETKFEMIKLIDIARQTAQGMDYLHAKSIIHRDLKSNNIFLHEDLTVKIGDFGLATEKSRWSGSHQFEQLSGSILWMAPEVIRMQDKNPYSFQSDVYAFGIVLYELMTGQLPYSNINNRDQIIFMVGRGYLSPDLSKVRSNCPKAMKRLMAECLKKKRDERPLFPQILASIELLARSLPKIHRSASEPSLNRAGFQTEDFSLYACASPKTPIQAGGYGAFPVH

CC#CC(=O)N1CCC[C@H]1c1nc(-c2ccc(C(=O)Nc3ccccn3)cc2)c2c(N)nccn12 [Acalabrutinib]
remaining binding at 0.3 µM [1, 2]: 99%
remaining binding at 0.3 µM (KIT; [2]): 91%
remaining binding at 0.3 µM (AAK1; [2]): 94%
remaining binding at 0.3 µM (BRAF(V600E); [2]): 70%
remaining binding at 0.3 µM (PIK4CB; [2]): 72%
remaining binding at 0.3 µM (HIPK3; [2]): 99%
remaining binding at 0.3 µM (TTK; [2]): 64%
remaining binding at 0.3 µM (PFTAIRE2; [2]): 82%
remaining binding at 0.3 µM (CSF1R; [2]): 88%

C=CC(=O)N1CCC[C@@H](n2nc(-c3ccc(Oc4ccccc4)cc3)c3c(N)ncnc32)C1 [Ibrutinib]
remaining binding at 0.3 µM [1, 3]: 80%
remaining binding at 0.3 µM (PRKCD; [3]): 90%
remaining binding at 0.3 µM (TYRO3; [3]): 61%
remaining binding at 0.3 µM (BRAF(V600E); [3]): 98%
remaining binding at 0.3 µM (HIPK3; [3]): 51%
remaining binding at 0.3 µM (TTK; [3]): 93%
remaining binding at 0.3 µM (PFTAIRE2; [3]): 89%
remaining binding at 0.3 µM (CSF1R; [3]): 66%

CC#CC(=O)N1CC[C@@H](n2c(=O)n(-c3ccc(Oc4ccccc4)cc3)c3c(N)ncnc32)C1 [Tirabrutinib]
remaining binding at 0.3 µM [1, 4]: 79%
remaining binding at 0.3 µM (PRKCD; [4]): 90%
remaining binding at 0.3 µM (KIT; [4]): 91%
remaining binding at 0.3 µM (TYRO3; [4]): 99%
remaining binding at 0.3 µM (AAK1; [4]): 57%
remaining binding at 0.3 µM (PIK4CB; [4]): 79%
remaining binding at 0.3 µM (HIPK3; [4]): 78%
remaining binding at 0.3 µM (PFTAIRE2; [4]): 99%

C=CC(=O)N1CCC([C@@H]2CCNc3c(C(N)=O)c(-c4ccc(Oc5ccccc5)cc4)nn32)CC1 [Zanubrutinib]
remaining binding at 0.3 µM [1, 5]: 88%
remaining binding at 0.3 µM (PRKCD; [5]): 83%
remaining binding at 0.3 µM (KIT; [5]): 100%
remaining binding at 0.3 µM (TYRO3; [5]): 80%
remaining binding at 0.3 µM (AAK1; [5]): 96%
remaining binding at 0.3 µM (BRAF(V600E); [5]): 88%
remaining binding at 0.3 µM (PIK4CB; [5]): 94%
remaining binding at 0.3 µM (HIPK3; [5]): 97%
remaining binding at 0.3 µM (TTK; [5]): 94%
remaining binding at 0.3 µM (CSF1R; [5]): 88%
